Reference: PubChem BioAssay AID1963968 (Molecular Pharmacology Branch, DTP, NCI, 2024)

System: 945468-187-T-J3-PDC spheroids with HUVEC/MSC, viability
Experiment: Anticancer human tumor 945468-187-T-J3-PDC patient-derived rectal carcinoma cell line growth inhibition [PI3K]
Settings: for IC50: curve of first compound; for viability, T/C: stronger effect = lower value; active = viability on the fitted dose curve at most 10% of control; inactive = the rest
Method in brief: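 Complex 3D spheroids (cancer cells + endothelial HUVEC + mesenchymal stem cells); drug pairs of targeted agent x inavolisib/alpelisib/duvelisib/copanlisib; half-log series from ~Cmax, max 10 microM if Cmax unknown; endpoint viability.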
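Note: spheroids exposed to agents for 7 days before viability read.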
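Throughout, for viability, T/C: 100% = DMSO vehicle control viability.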

Cn1ncnc1[C@H]1c2n[nH]c(=O)c3cc(F)cc(c23)N[C@@H]1c1ccc(F)cc1 + CC(Nc1ncnc2nc[nH]c12)c1cc2cccc(Cl)c2c(=O)n1-c1ccccc1
inactive: viability, T/C (second compound 0.0316 µM, first compound 0.000316 µM) 105% | viability, T/C (second compound 0.0316 µM, first compound 0.001 µM) 87.4% | viability, T/C (second compound 0.0316 µM, first compound 0.00316 µM) 91.7% | viability, T/C (second compound 0.0316 µM, first compound 0.01 µM) 82.9% | viability, T/C (second compound 0.0316 µM, first compound 0.0316 µM) 101% | viability, T/C (second compound 0.0316 µM, first compound 0.1 µM) 92.4% | viability, T/C (second compound 0.1 µM, first compound 0.000316 µM) 94.2% | viability, T/C (second compound 0.1 µM, first compound 0.001 µM) 87.8% | viability, T/C (second compound 0.1 µM, first compound 0.00316 µM) 97.8% | viability, T/C (second compound 0.1 µM, first compound 0.01 µM) 85.6% | viability, T/C (second compound 0.1 µM, first compound 0.0316 µM) 89.3% | viability, T/C (second compound 0.1 µM, first compound 0.1 µM) 97.8% | viability, T/C (second compound 0.316 µM, first compound 0.000316 µM) 97.5% | viability, T/C (second compound 0.316 µM, first compound 0.001 µM) 95.8% | viability, T/C (second compound 0.316 µM, first compound 0.00316 µM) 90.1% | viability, T/C (second compound 0.316 µM, first compound 0.01 µM) 103% | viability, T/C (second compound 0.316 µM, first compound 0.0316 µM) 88% | viability, T/C (second compound 0.316 µM, first compound 0.1 µM) 101% | viability, T/C (second compound 1 µM, first compound 0.000316 µM) 85.2% | viability, T/C (second compound 1 µM, first compound 0.001 µM) 109% | viability, T/C (second compound 1 µM, first compound 0.00316 µM) 98.5% | viability, T/C (second compound 1 µM, first compound 0.01 µM) 86.8% | viability, T/C (second compound 1 µM, first compound 0.0316 µM) 104% | viability, T/C (second compound 1 µM, first compound 0.1 µM) 105% | viability, T/C (second compound 3.16 µM, first compound 0.000316 µM) 103% | viability, T/C (second compound 3.16 µM, first compound 0.001 µM) 99.8% | viability, T/C (second compound 3.16 µM, first compound 0.00316 µM) 95.1% | viability, T/C (second compound 3.16 µM, first compound 0.01 µM) 100% | viability, T/C (second compound 3.16 µM, first compound 0.0316 µM) 102% | viability, T/C (second compound 3.16 µM, first compound 0.1 µM) 104% | viability, T/C (second compound 10 µM, first compound 0.000316 µM) 101% | viability, T/C (second compound 10 µM, first compound 0.001 µM) 97.5% | viability, T/C (second compound 10 µM, first compound 0.00316 µM) 106% | viability, T/C (second compound 10 µM, first compound 0.01 µM) 95.7% | viability, T/C (second compound 10 µM, first compound 0.0316 µM) 96.9% | viability, T/C (second compound 10 µM, first compound 0.1 µM) 102%
> 100 nM: IC50 (second compound 0.0316 µM) | IC50 (second compound 0.1 µM) | IC50 (second compound 0.316 µM) | IC50 (second compound 1 µM) | IC50 (second compound 3.16 µM) | IC50 (second compound 10 µM)
